# Test results reported in ChEMBL document CHEMBL1148760, “Novel generation of pH indicators for proton magnetic resonance spectroscopic imaging” (J Med Chem, 2007).
# Key:
# [1] = Dissociation constant, pKa in presence of fetal bovine serum; format: physicochemical; conditions: cattle, solution containing fetal bovine serum; read-out: Apparent_pKa
# [2] = Dissociation constant, pKa in deuterated water solution; format: physicochemical; conditions: read-out: Apparent_pKa
# C6 = assay: Cytotoxicity in rat C6 cells assessed as intracellular release of lactic dehydrogenase; format: functional
pKa [1],pKa [2],SMILES,Activity (C6) [%]
6.67,6.56,O[C@@H](Cn1ccnc1)[C@@H](O)Cn1ccnc1,<10
6.63,7,O[C@@H]([C@H](O)[C@H](O)Cn1ccnc1)[C@H](O)Cn1ccnc1,<10
–,6.45,OC(Cn1ccnc1)Cn1ccnc1,–
